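The compound was tested at five concentrations on cells cultured in 96-well plates, with a 48-hour exposure period. GI50 = concentration required for 50% inhibition of growth.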 Activity calls are given as the source filed them. No stated cut-off is given here; in the data, active = GI50 up to about 1.1 µM and inactive = higher. Non-standard residues stand in square brackets, D forms with d. Residues, ends and D or L forms follow the SMILES beside them. *: point of attachment. hSer = N[CH](CCO)C(=O)O; Boc = CC(C)(C)OC(=O)*
Tests used:
Test in all cases: NCI tumour cell line growth inhibition, 48 h
PC-3 = test system: PC-3
SF-295 = test system: SF-295
HOP-92 = test system: HOP-92
A498 = test system: A498
KM12 = test system: KM12
DU-145 = test system: DU-145
OVCAR-8 = test system: OVCAR-8
T47D = test system: T47D
CAKI-1 = test system: CAKI-1
OVCAR-4 = test system: OVCAR-4
RPMI-8226 = test system: RPMI-8226
A549 = test system: A549
SNB-19 = test system: SNB-19
IGROV-1 = test system: IGROV-1
SK-MEL-2 = test system: SK-MEL-2
Malme-3M = test system: Malme-3M
UACC-257 = test system: UACC-257
HCC 2998 = test system: HCC 2998
U-251 = test system: U-251
TK-10 = test system: TK-10

Structure (SMILES)	GI50 (PC-3)	GI50 (SF-295)	GI50 (HOP-92)	GI50 (A498)	GI50 (KM12)	GI50 (DU-145)	GI50 (OVCAR-8)	GI50 (T47D)	GI50 (CAKI-1)	GI50 (OVCAR-4)	GI50 (RPMI-8226)	GI50 (A549)	GI50 (SNB-19)	GI50 (IGROV-1)	GI50 (SK-MEL-2)	GI50 (Malme-3M)	GI50 (UACC-257)	GI50 (HCC 2998)	GI50 (U-251)	GI50 (TK-10)
CC(C)(C)c1ccc(O)c(CN(Cc2cc(C(C)(C)C)ccc2O)C2CCCCC2)c1	17.5 µM (inactive)	17.7 µM (inactive)	16 µM (inactive)	17.5 µM (inactive)	20.5 µM (inactive)	19.5 µM (inactive)	15.9 µM (inactive)	16.4 µM (inactive)	26.2 µM (inactive)	16.9 µM (inactive)	8.73 µM (inactive)	16.2 µM (inactive)	18 µM (inactive)	17.6 µM (inactive)	18.5 µM (inactive)	15.8 µM (inactive)	18.3 µM (inactive)	2.01 µM (inactive)	16.5 µM (inactive)	17.7 µM (inactive)
C/C(=N\NC(=O)N/N=C(\C)c1ccccn1)c1ccccn1	37.2 µM (inactive)	0.308 µM (active)	0.279 µM (active)	> 71.4 µM (inactive)	0.139 µM (active)	43.5 µM (inactive)	9.75 µM (inactive)	35.2 µM (inactive)	38.8 µM (inactive)	42 µM (inactive)	0.0792 µM (active)	4.88 µM (inactive)	2.19 µM (inactive)	6.59 µM (inactive)	> 100 µM (inactive)	> 100 µM (inactive)	> 100 µM (inactive)	0.52 µM (active)	20.3 µM (inactive)	0.11 µM (active)
COCCC(NC(=O)C(CC(C)C)NC(=O)OC(C)(C)C)C(N)=O (stereo not drawn) (Boc-Leu-[hSer](Me)-NH2; configuration not given here)	> 100 µM (inactive)	> 100 µM (inactive)	> 100 µM (inactive)	> 100 µM (inactive)	> 100 µM (inactive)	> 100 µM (inactive)	> 100 µM (inactive)	> 100 µM (inactive)	> 100 µM (inactive)	> 100 µM (inactive)	> 100 µM (inactive)	> 100 µM (inactive)	> 100 µM (inactive)	> 100 µM (inactive)	> 100 µM (inactive)	> 100 µM (inactive)	> 100 µM (inactive)	> 100 µM (inactive)	> 100 µM (inactive)	> 100 µM (inactive)

Source: ChEMBL document CHEMBL1201862, “PubChem BioAssay data set” (2004)
